Results reported in patent US4242335A, “Novel 17α-aryl-steroids” (Roussel Uclaf, priority 1977, dated 1980).

What was measured:
[1] = system: proliferation of endometric lacework (uterus); assay: In vivo progestomimetic activity, Clauberg test on immature rabbits; set-up: species or system rabbit; conditions: for progestomimetic activity in vivo (in words): compared with ethynylnortestosterone, Table III; for endometrial proliferation, MacPhail Units: subcutaneous, 5 days
Protocol: The progestomimetic activity of products A, B and C were determined by the Clauberg test on immature rabbits previously sensibilized by subcutaneous administration of estradiol for 5 days at a daily dose of 5 μg. The test products were used in solution in olive oil containing 5% of benzyl alcohol and were subcutaneously administered for 5 days at different doses. The animals were killed on the 6th day and the uterus was removed to determine the proliferation of endometric lacework which is characteristic of progestomimetic activity. The results were compared with ethynylnortesterone administered in the same method in the same solvent. The results were expressed in MacPhail units in Table III.

[2] = molecular target: T1, uterine reception of progesterone (Oryctolagus cuniculus, UniProt P06186); assay: Progestomimetic activity by hormonal receptor method (displacement of tritiated product R in rabbit uterus cytosol); format: binding; conditions: for progestomimetic activity (in words): conclusion from Table I; for relative affinity of the test product (ARL), progestomimetic: rabbit uterus cytosol, 0° C., 2 hours, progesterone = 100; for activity weaker than progesterone: from Table I
T1 construct: from tissue; host or cells: uterus cytosol (105,000 g supernatant) of immature rabbits primed with estradiol
T1 sequence (P06186 1-930): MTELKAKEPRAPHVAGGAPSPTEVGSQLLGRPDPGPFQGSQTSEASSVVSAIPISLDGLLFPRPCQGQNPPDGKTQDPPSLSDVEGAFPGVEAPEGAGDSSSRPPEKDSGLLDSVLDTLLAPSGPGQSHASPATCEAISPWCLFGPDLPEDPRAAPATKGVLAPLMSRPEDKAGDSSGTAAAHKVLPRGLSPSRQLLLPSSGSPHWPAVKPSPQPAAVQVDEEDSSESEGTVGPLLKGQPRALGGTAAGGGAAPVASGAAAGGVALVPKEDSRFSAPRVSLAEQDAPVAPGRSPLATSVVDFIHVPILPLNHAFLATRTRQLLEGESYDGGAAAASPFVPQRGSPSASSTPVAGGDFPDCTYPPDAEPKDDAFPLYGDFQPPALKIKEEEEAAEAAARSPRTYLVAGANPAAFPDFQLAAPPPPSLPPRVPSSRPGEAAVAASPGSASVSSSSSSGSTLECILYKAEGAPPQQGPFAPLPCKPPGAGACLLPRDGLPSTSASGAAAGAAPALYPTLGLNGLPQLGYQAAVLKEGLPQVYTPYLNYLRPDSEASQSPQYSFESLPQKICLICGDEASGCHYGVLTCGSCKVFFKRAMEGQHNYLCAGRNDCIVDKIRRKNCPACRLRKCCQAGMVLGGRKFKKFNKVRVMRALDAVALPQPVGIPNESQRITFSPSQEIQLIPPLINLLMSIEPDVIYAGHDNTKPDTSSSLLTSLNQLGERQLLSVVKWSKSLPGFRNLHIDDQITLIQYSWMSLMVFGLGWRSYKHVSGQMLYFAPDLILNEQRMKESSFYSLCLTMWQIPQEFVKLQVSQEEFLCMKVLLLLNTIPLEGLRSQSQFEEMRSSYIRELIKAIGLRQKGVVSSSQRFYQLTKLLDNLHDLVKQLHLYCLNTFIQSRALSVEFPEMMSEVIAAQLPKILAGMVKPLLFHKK
Protocol: The progestomimetic activity was determined by the hormonal receptor method of Raynaud et al [J. Ster. Biochem., Vol. 6 (1975), p-615-622 and Physiology and Genetics of Reproduction, part A (1975), p. 143-160]. Immature rabbits received subcutaneously 25γ of estradiol and 5 days later, the animals were sacrificed and the uterus was removed and homogenized in a buffered solution of 10 mM of tromethamine, 0.25 M of saccharose and a pH of 7.4 with hydrochloric acid. The homogenate was centrifuged at 105,000 g during one hour and the surnageant or cytosol was adjusted to a dilution of 1/50 (weight/volume). The resulting solution was incubated at 0° C. for 2 hours in tubes with the same volume of cytosol with a fixed concentration of tritiated 17,21-dimethyl-19-nor-Δ^4,9 -pregnadiene-3-20-dione (designated as tritiated Product R) in the presence or not of an increasing concentration of radioinactive 17,21-dimethyl-19-nor-Δ^4,9 -pregnadiene-3,20-dione (designated as cold product R) or progesterone or the test product. The radioactivity of the tritiated product R was determined after 2 hours by the technique of adsorption on carbon-dextran (1.25-0.625%). The curves representing the percentage of tritiated product R as a function of the log of the concentration, of cold product R, of progresterone or the test products and the I50 straight line parallel to the axis of the abcissess and ordinates [formula] were ploted. B/T max. is the percentage of tied tritiated product R when the product is not added and B/T min. is the percentage of tied tritiated product R when the maximum amount of cold product R is added. The intersections of these I50 straight lines and the curves permit the determination of the values: CP and CX: CP - concentration of cold progesterone which inhibits by 50% the fixation of the tritiated product R and CX - concentration of test product which inhibits by 50% the fixation of the tritiated product R. The relative affinity of the test product (ARL) was determined by the formula [formula] and the results are reported in Table I.

[3] = molecular target: T2, prostatic reception of testosterone (Rattus norvegicus, UniProt P15207); assay: Androgenic activity by hormonal receptor method (displacement of tritiated product R in rat prostate cytosol); format: binding; conditions: for relative affinity of the test product (ARL), androgenic: castrated male rat prostate cytosol, 0° C., 2 hours, testosterone = 100; for affinity for prostatic reception of testosterone (in words) / androgenic activity (in words): conclusion from Table II
T2 construct: The prostate was recovered from male rats castrated 24 hours earlier and was homogenized; from tissue; host or cells: prostate cytosol (105,000 g supernatant) of male rats castrated 24 hours earlier
T2 sequence (P15207 1-902): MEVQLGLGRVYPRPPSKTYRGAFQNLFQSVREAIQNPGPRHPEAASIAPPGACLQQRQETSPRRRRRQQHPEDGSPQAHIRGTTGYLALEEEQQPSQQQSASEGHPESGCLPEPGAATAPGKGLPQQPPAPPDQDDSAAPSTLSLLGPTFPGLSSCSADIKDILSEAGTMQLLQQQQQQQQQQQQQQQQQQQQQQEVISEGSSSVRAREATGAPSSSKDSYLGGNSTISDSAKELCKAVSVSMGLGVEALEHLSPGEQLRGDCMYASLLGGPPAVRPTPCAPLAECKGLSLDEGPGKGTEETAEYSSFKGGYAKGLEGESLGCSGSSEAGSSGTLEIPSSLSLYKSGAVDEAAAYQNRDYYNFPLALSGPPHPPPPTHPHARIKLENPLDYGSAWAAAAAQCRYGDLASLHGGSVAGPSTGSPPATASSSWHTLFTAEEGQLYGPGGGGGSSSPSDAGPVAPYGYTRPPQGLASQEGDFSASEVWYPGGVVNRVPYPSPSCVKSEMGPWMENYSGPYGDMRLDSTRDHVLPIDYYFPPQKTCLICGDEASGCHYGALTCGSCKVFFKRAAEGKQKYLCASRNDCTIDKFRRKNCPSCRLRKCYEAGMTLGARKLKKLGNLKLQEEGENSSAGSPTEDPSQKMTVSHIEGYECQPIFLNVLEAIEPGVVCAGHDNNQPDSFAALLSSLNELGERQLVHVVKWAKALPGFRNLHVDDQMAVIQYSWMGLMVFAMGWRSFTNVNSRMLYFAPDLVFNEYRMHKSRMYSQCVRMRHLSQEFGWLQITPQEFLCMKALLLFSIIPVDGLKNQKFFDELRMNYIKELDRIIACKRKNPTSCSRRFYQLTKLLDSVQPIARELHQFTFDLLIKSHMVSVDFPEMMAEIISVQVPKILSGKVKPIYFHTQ
Protocol: This test also used the method of Raynaud et al discussed above. The prostate was recovered from male rats castrated 24 hours earlier and was homogenized in a buffer containing 10 mM of tromethamine and 0.25 M of saccharose and sufficient hydrochloric acid for a pH of 7.4 The homogenate was centrifuged at 105,000 g for one hour and the surnageant liquid or cytosol was adjusted to a dilution of 1/5 (weight/volume).
The radioactivity of the tied tritiated product was determined after 2 hours by absorption technique on carbondextran (1.25%-0.625%). […] B/T max. is the percentage of tied tritiated product R when the product is not added and B/T min. is the percentage of tied tritiated product R when the maximum amount of cold product R is added.

SMILES	progestomimetic activity in vivo (in words) [1]	endometrial proliferation, MacPhail Units ([1]; dose 100 γ)	endometrial proliferation, MacPhail Units ([1]; dose 500 γ)	endometrial proliferation, MacPhail Units ([1]; dose 2500 γ)	affinity for specific uterine reception of progesterone (in words) ([2]; compared with progesterone)	progestomimetic activity (in words) [2]	relative affinity of the test product (ARL), progestomimetic [2]	relative affinity of the test product (ARL), androgenic [3]	affinity for prostatic reception of testosterone (in words) [3]	androgenic activity (in words) [3]	endometrial proliferation, MacPhail Units ([1]; dose 1 mg)	endometrial proliferation, MacPhail Units ([1]; dose 2 mg)	endometrial proliferation, MacPhail Units ([1]; dose 200 γ)	activity weaker than progesterone ([2]; compared with progesterone)
C[C@]12CC[C@H]3[C@@H](CCC4=CC(=O)CC[C@@H]43)[C@@H]1CC[C@@]2(O)c1ccccc1 [Product A, 17α-phenyl-Δ^4-estrene-17β-ol-3-one]	progestomimetic activity greater than ethynylnortestosterone	2 MacPhail Units	2.7 MacPhail Units	3 MacPhail Units	comparable to that of progesterone	progestomimetics	80	0.3	practically devoid of an affinity	devoid of adrogenic activity	–	–	–	–
C#C[C@]1(O)CC[C@H]2[C@@H]3CCC4=CC(=O)CC[C@@H]4[C@H]3CC[C@@]21C [ethynylnortestosterone, reference compound]	–	1.2 MacPhail Units	1.5 MacPhail Units	2 MacPhail Units	–	–	–	–	–	–	–	–	–	–
C[C@]12CCC3=C4CCC(=O)C=C4CC[C@H]3[C@@H]1CC[C@@]2(O)c1ccccc1 [Product B, 17α-phenyl-Δ^4,9-estradiene-17β-ol-3-one]	progestomimetic activity greater than ethynylnortestosterone	–	–	–	–	progestomimetics	37	0.2	practically devoid of an affinity	devoid of adrogenic activity	2.8 MacPhail Units	3.0 MacPhail Units	1 MacPhail Units	about 3 times
C[C@]12C=CC3=C4CCC(=O)C=C4CC[C@H]3[C@@H]1CC[C@@]2(O)c1ccccc1 [Product C, 17α-phenyl-Δ^4,9,11-estratriene-17β-ol-3-one]	about the same order of activity as ethynylnortestosterone	–	–	–	–	progestomimetics	27	≤ 0.1	practically devoid of an affinity	devoid of adrogenic activity	1.8 MacPhail Units	2.9 MacPhail Units	0.8 MacPhail Units	about 3 times
